Data: patent US20150024008A1, “Methods and Compositions Involving Induced Senescent Cells for Cancer Treatment” (THE UNIVERSITY OF CHICAGO, priority 2011, published 2015)

Columns and labels:
B16 tumors = test: Flow cytometry of tumor infiltrating lymphocytes from B16 tumors; type: in vivo, mouse; conditions: veliparib+IR
Method: Mouse melanoma cell line B16SIY (5×10^5 cells) were implanted subcutaneously in the flank of 6 to 8-wk-old C57/B6 mice. Tumors were allowed to grow until they reached a volume of about 100 to 150 mm^3 (approximately 2 wk) before treatment with PARP inhibitor veliparib (vrib, (R)-2-(2-methylpyrrolidin-2-yl)-1H-benzo[d]imidazole-4-carboxamide, ABT-888) and/or IR (Dunn 2006). Mice received 0.5 mg of veliparib in water twice daily by oral gavage as indicated. CD8^+, CD4^+, NK cells were depleted by anti-CD8 or anti-CD4 or anti-NK1.1, respectively, 1 d before IR. Depletion was confirmed by checking peripheral blood samples by flow cytometry. Macrophages were depleted with liposomal clodronate starting 1 d before IR. Depletion was confirmed by checking splenocyte and tumor samples by flow cytometry (Zhang 2008). Samples were collected 2 to 7 days later, and analyzed by flow cytometry using a BD LSRII flow cytometer. Blood samples were gated in forward scatter and side scatter on smaller cells for CD8, CD4 analysis, larger cells for NK and macrophage, and the percentage of different cell types were determined (Lugade 2008, Zhang 2010).

[1] = test system: 22Rv1 (human) prostate carcinoma cells; test: Flow cytometric detection of SA-βGal with DDAO-G; type: cell-based
Method: Prostate carcinoma (PCa) cell lines included 22Rv1 (human) and TRAMP-C2 (murine, ATCC). PCa cell lines were propagated in complete culture medium using sterile culture flasks in a humidified, 5% CO2 incubator at 37° C. For 22Rv1 human PCa cells, complete media consisted of RPMI-1640 1× (modified without L-glutamine, Invitrogen) supplemented with fetal bovine serum (FBS, 10%, Gemini Biosciences), stabilized L-glutamine (2 mM, Gemini Biosciences), and penicillin-streptomycin solution (100 U/ml penicillin, 100 μg/ml streptomycin, Invitrogen). For TRAMP-C2 murine PCa cells, complete medium consisted of DMEM (modified with 4.5 g/l glucose and without L-glutamine, Invitrogen) supplemented with FBS (5%), Nu-Serum IV (5%, BD Biosciences), stabilized L-glutamine (4 mM), dehydroisoandrosterone (10 nM, Sigma-Aldrich), bovine insulin (5 μg/ml, Sigma-Aldrich), and penicillin-streptomycin solution (100 U/ml penicillin, 100 μg/ml streptomycin).
Cells were plated at low density (˜25×10^3 cells/cm^2) and incubated overnight to allow adherence to culture surfaces. The following day, PARP inhibitor veliparib (ABT-888, 10 μM in DMSO, ChemieTek) was added (or not) to freshly changed media to enhance uptake of the compound. Cells were incubated with veliparib for 60 minutes at 37° C. in 5% CO2 prior to gamma irradiation (IR, 6 Gy). Treated and untreated cells were then incubated undisturbed for 5 days to allow senescence to proceed.
Cells were pelleted by centrifugation for 5 minutes at 1000×g, supernatant removed, and pellet resuspended in 1% bovine serum albumin (BSA, United States Biological) in DPBS. Cell suspensions were counted (cells/mL) using a handheld counting device (Scepter, Millipore). […]
Analysis of SA-βGal signal was conducted by flow cytometry, using an LSRII cytometer (Becton Dickinson) equipped with a 633 nm red diode laser and a 670/30 (APC) bandpass filter suitable for DDAO red fluorescent signal excitation and emission detection. […] Single, whole cells were then visualized on a red-fluorescence vs SSC-A plot in order to define senescent SA-βGal^+ SSC^high cells. […]

[2] = test system: breast, prostate, melanoma and head and neck squamous cell cancer cell lines; test: Radiation induced senescence in different human cancer cell lines; type: cell-based; conditions: combined with radiation
[3] = veliparib+IR cells, FSC vs. SSC

Compound: C[C@]1(c2nc3c(C(N)=O)cccc3[nH]2)CCCN1 [veliparib, (R)-2-(2-methylpyrrolidin-2-yl)-1H-benzo[d]imidazole-4-carboxamide]
- NK cells in tumors (B16 tumors): more abundant
- proportion of IFNγ-producing CD8+ cells among tumor infiltrating lymphocytes (B16 tumors): 29%
- B-Gal high cells within the region shown by the black rectangle [1, 3]: 41%
- B-Gal- or B-Gal low cells within the region shown by the black rectangle [1, 3]: 59%
- cells in senescent gate (B-Gal vs. SSC) ([1]; veliparib+IR treated viable cells): 20%
- radiation induced senescence [2]: enhances radiation induced senescence
